Activity calls are given as the source filed them. The calls are words filed in the database; no cut-off is given here.
Tests used:
[1] = Half life of the compound in DMSO assessed as thermal isomerization by measuring E isomer level at 500 uM incubated for 48 hrs under dark condition by UV-Vis spectroscopy; format: physicochemical
[2] = target: T1, Transient receptor potential cation channel subfamily V member 6 (Homo sapiens) (UniProt Q9H1D0); test: Inhibition of human TRPV6 expressed in HEK293 cells assessed as reduction in Cd2+ influx at 10 uM preincubated for 5 mins followed by CdCl2 addition using 365 nm UV-light irradiated compound by calcium-5 fluorescence dye-based FLIPR assay; format: cell-based
T1 sequence (whole entry): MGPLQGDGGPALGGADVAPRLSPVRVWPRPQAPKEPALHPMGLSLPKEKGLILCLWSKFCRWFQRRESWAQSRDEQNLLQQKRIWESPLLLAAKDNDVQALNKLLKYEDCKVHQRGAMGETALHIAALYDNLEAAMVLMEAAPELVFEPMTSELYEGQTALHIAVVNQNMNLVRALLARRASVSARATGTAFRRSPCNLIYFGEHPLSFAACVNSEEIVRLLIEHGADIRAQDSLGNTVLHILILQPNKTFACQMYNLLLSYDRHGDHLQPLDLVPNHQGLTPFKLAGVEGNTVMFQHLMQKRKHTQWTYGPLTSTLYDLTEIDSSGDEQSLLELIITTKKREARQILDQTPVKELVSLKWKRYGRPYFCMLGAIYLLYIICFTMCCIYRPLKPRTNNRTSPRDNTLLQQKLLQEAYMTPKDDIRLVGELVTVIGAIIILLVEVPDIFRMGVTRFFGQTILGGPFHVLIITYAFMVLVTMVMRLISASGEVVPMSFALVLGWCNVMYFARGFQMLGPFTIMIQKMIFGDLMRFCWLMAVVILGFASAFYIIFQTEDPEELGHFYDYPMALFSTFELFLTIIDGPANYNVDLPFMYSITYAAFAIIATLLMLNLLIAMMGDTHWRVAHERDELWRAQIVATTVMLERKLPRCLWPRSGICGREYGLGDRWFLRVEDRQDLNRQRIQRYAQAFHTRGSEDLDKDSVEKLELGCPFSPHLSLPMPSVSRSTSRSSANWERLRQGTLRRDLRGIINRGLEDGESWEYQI

[3] = target: T2, Transient receptor potential cation channel subfamily V member 6 (Homo sapiens, UniProt Q9H1D0); test: Inhibition of human TRPV6 expressed in HEK293 cells assessed as reduction in Cd2+ influx preincubated for 5 mins followed by CdCl2 addition using 365 nm UV-light irradiated compound by calcium-5 fluorescence dye-based FLIPR assay; format: cell-based
T2 sequence (Q9H1D0 whole entry): T1 sequence (whole entry)

[4] = Thermal isomerization of the compound in DMSO assessed as E isomer level at 500 uM preincubated for 48 hrs under dark condition followed by irradiated with UV light at 365 nm for 5 mins and subsequent irradiation with UV light at 470 nm for 5 mins measured immediately by UV-Vis spectroscopy
[5] = Solubility of the compound in DMSO/buffer at >10 uM; format: physicochemical
[6] = Stability in DMSO assessed as parent compound remaining at 500 uM incubated for 48 hrs in dark by RP-UHPLC analysis; format: physicochemical; conditions: read-out: Stability
[7] = Stability in DMSO assessed as parent compound remaining at 500 uM irradiated with UV light at 365 nm for 5 mins measured immediately by RP-UHPLC analysis
[8] = Drug isomerization in DMSO assessed as Z isomer level at 500 uM incubated for 48 hrs in dark by RP-UHPLC analysis
[9] = Drug isomerization in DMSO assessed as Z isomer level at 500 uM irradiated with UV light at 365 nm for 5 mins measured immediately by RP-UHPLC analysis
[10] = Drug isomerization in DMSO assessed as Z isomer level at 500 uM irradiated with UV light at 365 nm for 5 mins measured immediately by UV-vis spectra analysis
[11] = target: T1, Transient receptor potential cation channel subfamily V member 6 (Homo sapiens); test: Inhibition of human YFP-fused TRPV6 expressed in HEK293 cells assessed as decrease in whole cell inward calcium current density at 10 uM at 50 mV holding potential under 365 nm UV-light irradiation by patch clamp assay; format: cell-based
[12] = target: T1, Transient receptor potential cation channel subfamily V member 6 (Homo sapiens); test: Inhibition of human YFP-fused TRPV6 expressed in HEK293 cells assessed as decrease in whole cell inward calcium current density at 10 uM at 50 mV holding potential pre-irradiated with 365 nm UV-light followed by […] irradiation by patch clamp assay; format: cell-based
[13] = target: T1, Transient receptor potential cation channel subfamily V member 6 (Homo sapiens); test: Inhibition of human TRPV6 expressed in HEK293 cells assessed as reduction of Cd2+ influx at 10 uM preincubated for 5 mins followed by CdCl2 addition measured under dark state by calcium-5 fluorescence dye-based FLIPR assay relative to control; format: cell-based
[14] = target: T2, Transient receptor potential cation channel subfamily V member 6; test: Inhibition of human TRPV6 expressed in HEK293 cells assessed as reduction of Cd2+ influx preincubated for 5 mins followed by CdCl2 addition measured under dark state by calcium-5 fluorescence dye-based FLIPR assay; format: cell-based
[15] = Drug isomerization in DMSO assessed as Z isomer level by measuring maximum absorbance at 500 uM irradiated with UV light at 365 nm for 5 mins measured immediately by UV-vis spectra analysis
[16] = target: T1, Transient receptor potential cation channel subfamily V member 6 (Homo sapiens); test: Inhibition of human peTFP-C1-TRPV6 expressed in HEK293 cells assessed as decrease in whole cell inward calcium current density at 10 uM at 50 mV holding potential by patch clamp assay; format: cell-based

Structure (SMILES) | half-life at 500 µM [1] | inhibition [2] | solubility [5] | remaining at 48 h, 500 µM [6] | inhibition [13] | Drug metabolism [4] | Stability [7] | Z isomer level [8] | Z isomer level [9] | Drug metabolism [10] | other results
c1ccc([C@H]2CC[C@@H](N3CCN(c4ccc(/N=N\c5cccnc5)cc4)CC3)CC2)cc1 |  |  |  |  |  | Metabolite detected |  |  |  |  | 
c1ccc(/N=N\c2ccc(CN3CCN([C@H]4CC[C@@H](c5ccccc5)CC4)CC3)cc2)cc1 | 93.6 h | Active |  |  |  | Metabolite detected |  |  |  |  | IC50 [3]: 1700 nM; inhibition [11]: Active; inhibition [12]: Active
c1ccc([C@H]2CC[C@@H](N3CCN(c4ccc(/N=N/c5cccnc5)cc4)CC3)CC2)cc1 |  |  | Insoluble | 100% |  |  | 100% | 0% | 0% | Metabolite not detected | 
c1ccc(/N=N\c2ccc(N3CCN([C@H]4CC[C@@H](c5ccccc5)CC4)CC3)cc2)cc1 |  |  |  |  |  | Metabolite detected |  |  |  |  | 
c1ccc(/N=N/c2ccc(CN3CCN([C@H]4CC[C@@H](c5ccccc5)CC4)CC3)cc2)cc1 |  |  | Insoluble | 97% | 13% |  | 25% | 3% | 75% |  | IC50 [14]: > 10000 nM; inhibition [16]: Active; Activity [15]: 400 to 500 nm

Further lines, with some results ahead:

half-life at 500 µM [1] | inhibition [2] | solubility [5] | remaining at 48 h, 500 µM [6] | inhibition [13] | Structure (SMILES) | Drug metabolism [4] | Stability [7] | Z isomer level [8] | Z isomer level [9] | Drug metabolism [10] | other results
3.7 h | Active |  |  |  | c1ccc(/N=N\c2ccc(CN3CCN([C@H]4CC[C@@H](c5ccccc5)CC4)CC3)cn2)cc1 |  |  |  |  |  | IC50 [3]: 600 nM
 |  | Insoluble | 93% |  | c1ccc(/N=N/c2ccc(N3CCN([C@H]4CC[C@@H](c5ccccc5)CC4)CC3)cc2)cc1 |  | 93% | 7% | 7% | Metabolite not detected | 
 |  | Insoluble | 100% | 70% | c1ccc(/N=N/c2ccc(CN3CCN([C@H]4CC[C@@H](c5ccccc5)CC4)CC3)cn2)cc1 |  | 50% | 0% | 50% |  | IC50 [14]: 600 nM; Activity [15]: 400 to 500 nm
0.137 h | Active |  |  |  | c1ccc(/N=N\c2ccc(N3CCN([C@H]4CC[C@@H](c5ccccc5)CC4)CC3)cn2)cc1 |  |  |  |  |  | 
 |  | Insoluble | 100% | 30% | c1ccc(/N=N/c2ccc(N3CCN([C@H]4CC[C@@H](c5ccccc5)CC4)CC3)cn2)cc1 |  | 88% | 0% | 12% | Metabolite not detected | 
